{"source": "paper PMC10644720", "about": "(Frontiers in Pharmacology, 2023)", "key": {"human washed platelets [1]": {"test_system": "human washed platelets", "experiment": "Clot retraction experiment", "type": "cell-based", "settings": "luteolin 100 μM; 0.1 U/mL thrombin", "protocol": "Clot retraction experiments were completed using the previously reported method ([Zhang et al., 2015]). […] Then, 200 μL of WPs were placed in a siliconized glass tube with 1 mM CaCl2, 0.1 U/mL thrombin, and 10 µL PPP, mixed well, and left at 37°C. Pictures were taken every 5 min. The clot size was calculated using ImageJ software."}, "rhGPVI": {"molecular_target": "T1, rhGPVI (Homo sapiens, UniProt Q9HCN6)", "T1 construct": "rhGPVI was expressed and purified according to the method reported in the literature; made in house", "T1 sequence (Q9HCN6 21-203 limits assumed)": "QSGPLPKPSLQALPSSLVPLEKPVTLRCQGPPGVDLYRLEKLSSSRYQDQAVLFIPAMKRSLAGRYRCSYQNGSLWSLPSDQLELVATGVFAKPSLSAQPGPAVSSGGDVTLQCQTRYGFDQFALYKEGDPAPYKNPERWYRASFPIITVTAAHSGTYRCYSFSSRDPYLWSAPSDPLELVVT", "experiment": "Solid phase binding assay (rhGPVI binding to immobilized collagen)", "settings": "rhGPVI 30 nM; collagen 5 μg/mL coated; read-out: IC50, inhibition of binding of rhGPVI to collagen", "protocol": "rhGPVI was expressed and purified according to the method reported in the literature ([Horii et al., 2006]). rhGPVI was cross-linked with 10 μg/mL of cross-linking antibody His Tag Horseradish Peroxidase-conjugated Antibody (Cat. MAB050H; R&D Systems, Minneapolis, MN, United States). Solid phase assays were performed based on previously described procedures ([Billiald et al., 2023]). Collagen (5 μg/mL prepared in PBS) was used to coat 96-well plates overnight at 4°C. Non-specific sites were closed by Superblock (Cat. 37580; Thermo Fisher Scientific, Waltham, MA, United States). […] 1-StepTM Ultra TMB-ELISA (Cat. 34022; Thermo Fisher Scientific, Waltham, MA, United States) was developed, and the reaction was stopped with a 2 M sulphuric acid solution. Absorbance values were read at 450 nm. At least three washes were performed with PBS between each of the above steps. Each spot was measured three times."}, "human washed platelets [2]": {"test_system": "human washed platelets", "experiment": "Platelet ROS release assay (DCFH-DA)", "type": "cell-based", "settings": "for IC50: Homo sapiens, Platelet; for effect on platelet ROS release: luteolin 25 μM, BAY61-3606 63 nM", "protocol": "The assay was performed as previously reported with minor modifications ([Arthur et al., 2012]; [Ye et al., 2020]). Briefly, WPs (500 × 10^9/L) were labeled with 5 μM Fluo-3AM (Cat No. IF0150; Solarbio) or 10 μM DCFH-DA (Cat No. D6883; Sigma, St. Louis, MO, United States) at 37°C for 30 min protected from light. […] In addition, 1 mM CaCl2 and collagen or convulxin were added to start the reaction. […] A ROS probe via a fluorescent enzyme marker was added. O2 ^− and H2O2 were measured using 2 μM Amplex Red (Cat No. ST010; Beyotime Institute of Biotechnology, Shanghai, China) or 2 μM Dihydroethidium (DHE, Cat No. S0063; Beyotime Institute of Biotechnology, Shanghai, China). O2 ^− and H2O2 were analyzed using a Fluoroskan Ascent fluorometer (Thermo Fisher, Waltham, Massachusetts, United States)."}, "Tail bleeding in mice": {"experiment": "Tail bleeding in mice", "type": "in vivo, C57BL/6 mice", "settings": "luteolin 35 μM/kg or aspirin i.p., 30 min after injection; vs DMSO", "protocol": "The tail break hemorrhage experiment in mice was performed as previously reported, with slight modifications ([Liu et al., 2012]). […] Before the experiment, the mouse tails were immersed in saline for 3 min at 37°C. Then, 30 min after injection, the tails were quickly cut off using a surgical knife blade and placed in saline at 37°C. The cutting site was 5 mm from the end of the tail tip. The bleeding time of the broken tails was observed and recorded."}, "human washed platelets [3]": {"test_system": "human washed platelets", "experiment": "MDA, SOD and GPx activity in platelet lysate supernatant", "type": "cell-based", "settings": "convulxin- and collagen-induced", "protocol": "MDA, SOD, GPx, and NADPH oxidase activity were measured as previously described ([Krotz et al., 2002]; [Paul et al., 2019]; [Pan et al., 2021]). After incubation and activation, the reaction was stopped by adding 10 mM EGTA. The platelets were pelleted by centrifugation at 20,000 × g for 10 min at 4°C and resuspended in Tyrode’s buffer with 0.1% phosphatase and protease inhibitors (Cat No. 04906837001, Roche Applied Science, Penzberg, Germany; Cat No. P-8340, Sigma, St. Louis, MO, United States). The platelets were disrupted by passing them 10 times through a 29-gauge needle, followed by centrifugation at 2000 × g for 10 min at 4°C to separate the supernatant and precipitate. The detection of MDA, SOD, and GPx in the supernatant was performed according to the kit’s instructions for SOD (Cat No. BC0170, Solarbio Life Science, Beijing, China), MDA (Cat No. S0131S, Beyotime Institute of Biotechnology, Shanghai, China) and GPx (Cat No. S0056, Beyotime Institute of Biotechnology, Shanghai, China). In order to determine NADPH oxidase (NOX) activity, platelet lysate (12.5 μg) was incubated with 10 µM lucigenin and 0.5 mM NADPH at 37°C in the dark. The absorbance values were detected at 450 nm using a spectrophotometer Multiskan FC (ThermoFisher Scientific Inc., Waltham, MA, United States). Protein content was determined by the Bradford method."}, "[4]": {"parameters": "method as in Cheurfa et al., 2019", "settings": "diet-induced obese mice; 200 mg/kg/d; ref Cheurfa et al., 2019; cited from earlier work"}, "[5]": {"experiment": "Coagulation function in mice", "type": "in vivo, C57BL/6 mice", "settings": "30 min after administration", "protocol": "Then, 30 min after administration, blood was removed from the eyes and anticoagulated with 3.8% sodium citrate. The plasma was obtained by centrifugation at 3,000 rpm for 10 min at room temperature, and coagulation-related indexes were measured using an STA Compact Max (Diagnostica Stago, Inc. Asnières-sur-Seine, France)."}, "[6]": {"parameters": "method as in Aziz et al., 2018", "settings": "intraperitoneal injection; ref Aziz et al., 2018; cited from earlier work"}, "human platelets": {"test_system": "human platelets", "settings": "cited from earlier work"}}, "note": "Read-outs that look alike come from different tables or passages of the source."}
{"smiles": "O=c1cc(-c2ccc(O)c(O)c2)oc2cc(O)cc(O)c12", "note": "[Luteolin]", "values": [{"measurement": "thrombin-induced clot retraction", "setting": "human washed platelets [1]", "value": "inhibited"}, {"measurement": "IC50", "setting": "rhGPVI", "value": 5.49, "unit": "µM"}, {"measurement": "IC50", "setting": "human washed platelets [2]; read-out: IC50, inhibition of ROS release, convulxin (5 ng/mL)-induced", "value": 3.51, "unit": "µM"}, {"measurement": "IC50", "setting": "human washed platelets [2]; collagen (10 μg/mL)-induced, read-out: IC50, inhibition of ROS release", "value": 2.06, "unit": "µM"}, {"measurement": "effect on platelet ROS release", "setting": "human washed platelets [2]; collagen (10 μg/mL)-induced", "value": "decreasing levels"}, {"measurement": "effect on platelet ROS release", "setting": "human washed platelets [2]; convulxin (5 ng/mL)-induced", "value": "decreased"}, {"measurement": "tail bleeding time", "setting": "Tail bleeding in mice", "value": "no significant prolonging effect"}, {"measurement": "GPx activity", "setting": "human washed platelets [3]", "value": "promoted"}, {"measurement": "MDA activity", "setting": "human washed platelets [3]", "value": "inhibited"}, {"measurement": "SOD activity", "setting": "human washed platelets [3]", "value": "promoted"}, {"measurement": "low-density lipoprotein content", "setting": "[4]", "value": "significantly reduced"}, {"measurement": "activated partial thromboplastin time (APTT)", "setting": "[5]", "value": "no significant effects"}, {"measurement": "plasma concentration of fibrinogen", "setting": "[5]", "value": "no significant effects"}, {"measurement": "prothrombin time (PT)", "setting": "[5]", "value": "no significant effects"}, {"measurement": "thrombin time (TT)", "setting": "[5]", "value": "no significant effects"}, {"measurement": "LD50", "setting": "[6]", "value": 180, "unit": "mg/kg"}, {"measurement": "IC50", "setting": "human platelets; 2 μM U46619, ref Guerrero et al., 2005, read-out: IC50, inhibition of U46619-induced platelet aggregation", "value": "47 ± 13.3", "unit": "µM"}, {"measurement": "ADP induced platelet aggregation", "setting": "human platelets; 25–100 μM luteolin, 1 h incubation, ref Lu et al., 2021", "value": "inhibited"}, {"measurement": "collagen, U46619, and ADP-induced activation in human platelets", "setting": "human platelets; ref Guerrero et al., 2005, Guerrero et al., 2007, Lu et al., 2021", "value": "significantly inhibits"}]}
